Data as given in ChEMBL document CHEMBL1201862, “PubChem BioAssay data set” (2004).
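Where inhibition never reached the appropriate level, the endpoint shown equals the highest concentration tested. Otherwise, values were interpolated linearly from a five-concentration, 48-hour dose response in 96-well plates. Here, GI50 denotes the concentration required for 50% inhibition of growth.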 The source made the active and inactive calls. Rule as the data show it: active = GI50 up to about 1.1 µM and inactive = higher.

What was measured:
Experiment in all cases: inhibition of tumour cell growth, NCI panel, 48 h
HOP-62 = system: HOP-62
SK-OV-3 = system: SK-OV-3
OVCAR-8 = system: OVCAR-8
OVCAR-4 = system: OVCAR-4
MDA-MB-231 = system: MDA-MB-231
CCRF-CEM = system: CCRF-CEM
SR = system: SR
ACHN = system: ACHN
MOLT-4 = system: MOLT-4
UACC-62 = system: UACC-62
LOX IMVI = system: LOX IMVI
HCT-116 = system: HCT-116
T47D = system: T47D
SNB-19 = system: SNB-19
OVCAR-3 = system: OVCAR-3
Malme-3M = system: Malme-3M
M14 = system: M14
UACC-257 = system: UACC-257
NCI-H226 = system: NCI-H226
SW-620 = system: SW-620

Measured: GI50

NS(=O)(=O)c1ccc(NC(=O)c2cccc3cc4ccccc4nc23)cc1
inactive: HOP-62 > 58.6 µM | SK-OV-3 > 88.7 µM | OVCAR-8 6.3 µM | OVCAR-4 21 µM | MDA-MB-231 > 100 µM | CCRF-CEM 7.71 µM | SR 4.58 µM | ACHN 6.64 µM | MOLT-4 2.7 µM | UACC-62 66.5 µM | LOX IMVI 6.14 µM | HCT-116 4.69 µM | T47D 96.6 µM | SNB-19 28.3 µM | OVCAR-3 46.6 µM | Malme-3M 12.2 µM | M14 > 72.1 µM | UACC-257 71.4 µM | NCI-H226 25.9 µM | SW-620 6.04 µM

C/C(=C1/N=C(c2ccccc2)OC1=O)c1ccc(C)cc1
inactive: HOP-62 > 100 µM | SK-OV-3 > 100 µM | OVCAR-8 > 100 µM | OVCAR-4 > 100 µM | MDA-MB-231 > 100 µM | CCRF-CEM > 100 µM | SR > 100 µM | ACHN > 100 µM | MOLT-4 > 100 µM | UACC-62 > 100 µM | LOX IMVI > 100 µM | HCT-116 > 100 µM | T47D > 100 µM | SNB-19 > 100 µM | OVCAR-3 > 100 µM | Malme-3M > 100 µM | M14 > 100 µM | UACC-257 > 100 µM | NCI-H226 > 100 µM | SW-620 > 100 µM

COC(=O)c1c(O)ccc2c1c1c(n2Cc2ccc(Cl)cc2Cl)C(=O)c2ccccc2C1
inactive: HOP-62 > 100 µM | SK-OV-3 47.9 µM | OVCAR-8 37.8 µM | OVCAR-4 27.1 µM | MDA-MB-231 69.7 µM | CCRF-CEM 23.2 µM | SR 36.3 µM | MOLT-4 39.1 µM | UACC-62 > 100 µM | LOX IMVI 27 µM | HCT-116 87.9 µM | T47D 40.6 µM | SNB-19 61.7 µM | OVCAR-3 49.2 µM | Malme-3M 97.7 µM | M14 89.1 µM | UACC-257 42.2 µM | NCI-H226 27.6 µM | SW-620 57 µM

CC(=O)Nc1sccc1S(=O)(=O)c1ccc(Cl)cc1
inactive: SK-OV-3 > 100 µM | OVCAR-8 > 100 µM | OVCAR-4 > 100 µM | MDA-MB-231 > 100 µM | CCRF-CEM > 100 µM | SR > 100 µM | ACHN > 100 µM | MOLT-4 > 100 µM | UACC-62 > 100 µM | HCT-116 > 100 µM | T47D > 100 µM | SNB-19 > 100 µM | OVCAR-3 > 100 µM | Malme-3M > 100 µM | M14 > 100 µM | UACC-257 > 100 µM | NCI-H226 > 100 µM | SW-620 > 100 µM

Cc1ccc(C)c(COCCOCn2cc(N3CCOCC3)c(=O)[nH]c2=O)c1
inactive: SK-OV-3 > 100 µM | OVCAR-8 > 100 µM | MDA-MB-231 > 100 µM | CCRF-CEM > 100 µM | SR > 100 µM | ACHN > 100 µM | MOLT-4 > 100 µM | UACC-62 > 100 µM | LOX IMVI > 100 µM | HCT-116 > 100 µM | T47D > 100 µM | SNB-19 > 100 µM | Malme-3M > 100 µM | M14 > 100 µM | UACC-257 > 100 µM | NCI-H226 > 100 µM | SW-620 > 100 µM

CC(C)NC1(C(N)=O)CCN(Cc2ccccc2)CC1
inactive: HOP-62 > 100 µM | SK-OV-3 > 100 µM | OVCAR-8 > 100 µM | OVCAR-4 > 100 µM | MDA-MB-231 > 100 µM | SR > 100 µM | ACHN > 100 µM | MOLT-4 > 100 µM | UACC-62 > 100 µM | LOX IMVI > 100 µM | HCT-116 > 100 µM | T47D > 100 µM | SNB-19 > 100 µM | OVCAR-3 > 100 µM | Malme-3M > 100 µM | M14 > 100 µM | UACC-257 > 100 µM | NCI-H226 > 100 µM | SW-620 > 100 µM

O=C(O)c1ccc(/C=N\N(CCO)C2=NCCN2)cc1
inactive: HOP-62 > 100 µM | SK-OV-3 > 100 µM | OVCAR-8 > 100 µM | OVCAR-4 > 100 µM | MDA-MB-231 > 100 µM | CCRF-CEM > 100 µM | SR > 100 µM | ACHN > 100 µM | MOLT-4 > 100 µM | UACC-62 > 100 µM | LOX IMVI > 100 µM | HCT-116 > 100 µM | T47D > 100 µM | SNB-19 > 100 µM | OVCAR-3 > 100 µM | Malme-3M > 100 µM | M14 > 100 µM | NCI-H226 > 100 µM | SW-620 > 100 µM

CC1(C)OC(C(C)(C)O)C(C(C)(C)O)O1 (stereo not given)
inactive: HOP-62 > 100 µM | SK-OV-3 > 100 µM | OVCAR-8 > 100 µM | OVCAR-4 > 100 µM | MDA-MB-231 > 100 µM | CCRF-CEM > 100 µM | SR > 100 µM | ACHN > 100 µM | MOLT-4 > 100 µM | UACC-62 > 100 µM | LOX IMVI > 100 µM | HCT-116 > 100 µM | T47D > 100 µM | SNB-19 > 100 µM | Malme-3M > 100 µM | M14 > 100 µM | UACC-257 > 100 µM | NCI-H226 > 100 µM | SW-620 > 100 µM

Clc1c(Cl)c(Cl)c2nn(C3CCCO3)nc2c1Cl (stereo not given)
inactive: HOP-62 28.1 µM | SK-OV-3 > 100 µM | OVCAR-8 63.5 µM | MDA-MB-231 76.7 µM | CCRF-CEM 82.2 µM | SR 52.6 µM | MOLT-4 30.5 µM | UACC-62 60.3 µM | HCT-116 50.6 µM | T47D 37 µM | SNB-19 26.7 µM | OVCAR-3 43 µM | Malme-3M 39.4 µM | M14 > 100 µM | UACC-257 72.6 µM | NCI-H226 > 100 µM

O=C(O)c1c(O)c2cc(Br)ccc2oc1=O
inactive: HOP-62 > 100 µM | OVCAR-8 > 100 µM | OVCAR-4 > 100 µM | MDA-MB-231 > 100 µM | CCRF-CEM > 100 µM | SR > 100 µM | ACHN > 100 µM | MOLT-4 > 100 µM | UACC-62 > 100 µM | LOX IMVI > 100 µM | HCT-116 > 100 µM | T47D > 100 µM | SNB-19 > 100 µM | OVCAR-3 > 100 µM | Malme-3M > 100 µM | M14 > 100 µM | UACC-257 > 100 µM | NCI-H226 > 100 µM | SW-620 > 100 µM

N#C/C(=C\c1ccc(Cl)cc1)c1nc(-c2cc3ccccc3oc2=O)cs1
inactive: HOP-62 24.8 µM | SK-OV-3 84.5 µM | OVCAR-8 49.2 µM | OVCAR-4 33.5 µM | MDA-MB-231 22 µM | CCRF-CEM > 100 µM | SR > 100 µM | ACHN 38.2 µM | MOLT-4 > 100 µM | UACC-62 28.9 µM | LOX IMVI 59.6 µM | HCT-116 67.6 µM | T47D 44 µM | SNB-19 43.6 µM | Malme-3M 41.7 µM | M14 51.5 µM | UACC-257 47.6 µM | NCI-H226 39 µM | SW-620 > 100 µM
